Columns and labels:
FAM-CRE DNA = assay: FP binding of ATF2W to CRE DNA; details: ATF2W 9 nM-10 μM, FAM-CRE DNA 10 nM, up to 1000x excess
Procedure: removed before peptide concentration determination.
Peptide samples were suspended in 20
Post-melt scans at 20°C confirmed the
Sequential 2 µL injections of ATF2W (50 µM)
Data from a control experiment whereby […]
errors are given as one standard deviation.
Fluorescence polarisation: Fluorescence polarisation was measured in a CLARIOstar […]
chloride, 5 mM MgCl2, 10 mM TCEP, pH 7.4 buffer. Palindromic FAM-CRE DNA oligo was […]
purchased from Merck: 5’[6FAM]- […]. 200 µM of the oligo was […]
prepared in water and then annealed by heating to 95°C for 10 minutes before cooling slowly to room temperature to give a 100 µM duplex stock. Samples containing 10 nM FAM-CRE and a serial dilution of ATF2 (12 nM-10 µM) were prepared and incubated at room temperature for 1 hour before transferring to the assay plate for measurement. Data were fit to a one site binding model. For antagonism experiments, the ATF2 concentration required for 80% response was selected. Samples containing 10 nM FAM-TRE, 625 nM ATF2 and a serial dilution of ATF2W (29 nM-12 µM) were prepared and incubated at room temperature for 2 hours before transferring to the assay plate for measurement. CREB1/CRE, cJun/TRE and DLX5/H-box DNA antagonism were determined by the equivalent experiments, using the FAM-CRE oligo above; FAM-TRE DNA oligoes: 5’-[6FAM]-[…], 5’- […]
[6FAM]-[…]; and palindromic FAM-H-Box oligo: 5’-[6FAM]- […]

ATF2-CRE DNA interaction = target: T1, ATF2-CRE DNA interaction (Homo sapiens, UniProt P15336); assay: FP antagonism assay ATF2-CRE; assay type: biochemical; details: up to 12 μM ATF2W
T1 construct: human ATF2 bZIP domain spans from Asp352 to Gln410; made in house; host or cells: chemical synthesis (Fmoc solid-phase peptide synthesis), no expression host
T1 sequence (P15336 352-410): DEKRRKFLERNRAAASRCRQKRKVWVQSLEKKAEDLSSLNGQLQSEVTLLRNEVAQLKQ
Procedure: Fluorescence polarization (FP) was next utilized to confirm that ATF2W binding induces the intended antagonism of the ATF2-CRE interaction. […] To assess ATF2W antagonism, 625 nM ATF2, which corresponded to 80% of the maximum DNA binding, was incubated with CRE DNA (10 nM) and varied concentrations of ATF2W (29 nM-12 μM). […] This represents a ∼ 3-fold selectivity for ATF2. […] As the peptide library was designed using established coiled coil interaction rules, it was expected that many sequences would bind the target.
(DMF). Deprotection was performed by addition of 0.75 mL 30% pyrrolidine into the coupling reaction. Peptides were acetylated at the N-terminus by a final reaction with 3x acetic anhydride, 4.5x diisopropylethylamine in DMF for one hour at room temperature. Incubation in a cleavage mixture (95% TFA, 2.5% triisopropylsilane, 2.5% H2O, 10 mL) for 4 h at room temperature cleaved the peptide from the resin and removed side chain protecting groups.
2.5% DODT was added to the cleavage cocktail for ATF2. The resin was removed by filtration and cleaved peptides were precipitated in diethyl ether at -80°C and centrifuged.
This pellet was washed a further four times with diethyl ether before it was dried overnight at room temperature. […]

Ac-LEQQLEELAQENEELEKEAAELQQQIARLKNEVAKLENENKTLDREIKALQREYSHKSD-NH2 [ATF2W]
interaction with CRE DNA (FAM-CRE DNA): does not interact with CRE DNA | ATF2-CRE antagonism at top concentrations (ATF2-CRE DNA interaction): reducing the FP value to that of free DNA

Reference: PMC12648313, “Enhancing the Efficacy, Utility, and Throughput of the Transcription Block Survival Peptide Library Screening Platform” (JACS Au, 2025)
